The text below walks through data of ChEMBL document CHEMBL1137621, “3-Nitro-4-amino benzoic acids and 6-amino nicotinic acids are highly selective agonists of GPR109b” (Bioorg Med Chem Lett, 2007).

Assay [1] concerns the target Hydroxycarboxylic acid receptor 3 (Homo sapiens, UniProt P49019). Kind of assay: Agonist activity at human GPR109b receptor transfected in CHOK1 cells assessed as reversal of forskolin-induced cAMP elevating effect by whole cell assay. In kind it is functional, cell-based, CHO-K1.
The target of assay [2] is T1, Hydroxycarboxylic acid receptor 2 (Homo sapiens, UniProt Q8TDS4). Description: Agonist activity at human GPR109a receptor transfected in CHOK1 cells at 30 uM assessed as reversal of forskolin induced cAMP elevating effect by whole cell assay. The following applies: CHO-K1. In kind it is functional, cell-based.
Assay [3] concerns the target T1, Hydroxycarboxylic acid receptor 2. Kind of assay: Agonist activity at human GPR109a receptor transfected in CHOK1 cells assessed as reversal of forskolin induced cAMP elevating effect by whole cell assay. Format: functional, cell-based, CHO-K1.

SMILES strings stand for the structures. Activity calls are given as the source filed them. The rule behind the calls is not given here.

Hydroxycarboxylic acid receptor 3, sequence (P49019 whole entry): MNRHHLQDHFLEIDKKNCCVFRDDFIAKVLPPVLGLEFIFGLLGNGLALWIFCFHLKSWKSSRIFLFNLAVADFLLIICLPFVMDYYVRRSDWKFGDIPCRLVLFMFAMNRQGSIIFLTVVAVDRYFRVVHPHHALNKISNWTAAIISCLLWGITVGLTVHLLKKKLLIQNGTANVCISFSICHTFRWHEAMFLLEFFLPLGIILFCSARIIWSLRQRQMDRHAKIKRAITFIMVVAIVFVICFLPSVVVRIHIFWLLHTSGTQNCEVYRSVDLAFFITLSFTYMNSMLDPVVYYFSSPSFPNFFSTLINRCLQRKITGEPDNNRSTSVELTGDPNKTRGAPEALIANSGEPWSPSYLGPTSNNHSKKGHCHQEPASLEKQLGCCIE
T1 sequence (Q8TDS4 whole entry): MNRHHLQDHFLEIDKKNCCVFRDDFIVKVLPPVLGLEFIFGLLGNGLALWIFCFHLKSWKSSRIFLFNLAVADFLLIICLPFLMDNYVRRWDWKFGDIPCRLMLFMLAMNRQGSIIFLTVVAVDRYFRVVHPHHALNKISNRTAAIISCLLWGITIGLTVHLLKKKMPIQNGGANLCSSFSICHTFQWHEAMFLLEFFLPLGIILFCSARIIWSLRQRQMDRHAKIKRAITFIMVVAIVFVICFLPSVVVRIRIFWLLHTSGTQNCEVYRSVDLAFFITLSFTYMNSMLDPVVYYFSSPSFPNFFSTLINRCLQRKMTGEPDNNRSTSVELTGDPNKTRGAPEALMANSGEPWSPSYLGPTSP

As for `CN(C)c1ccc(C(=O)O)cn1`, the EC50 (usually the concentration at which the effect is half-maximal) in assay [1] was greater than 10000 nM. Further, the outcome in assay [2] was inactive.

As to `CNc1ccc(C(=O)O)cc1[N+](=O)[O-]`, the EC50 in assay [1] was 1910 nM. Also, in assay [2], the result was inactive.

Take `O=C(O)c1ccc(N2CCCC2)nc1`: the outcome in assay [1] (CHO-K1) and in assay [2] was inactive.

On to `CC(C)CNc1ccc(C(=O)O)cn1`, for which the EC50 in assay [1] was 1070 nM; in assay [3], 35000 nM.

For `CCC(C)Nc1ccc(C(=O)O)cc1[N+](=O)[O-]` (centres undefined), in assay [1], the EC50 is 151 nM. Further, the result in assay [2] was inactive.

As to `CC(C)Nc1ccc(C(=O)O)cc1[N+](=O)[O-]`, the half-maximal effective concentration (EC50) in assay [1] was 257 nM. Moreover, in assay [2], the result was inactive.

Turning to `O=C(O)c1ccc(NC2CC2)c([N+](=O)[O-])c1`, the EC50 in assay [1] was 309 nM. For the same molecule, the outcome in assay [2] was inactive.

As for `CCCN(C)c1ccc(C(=O)O)cn1`, in assay [1], the EC50 is 1620 nM. The result in assay [2] was inactive.

`O=C(O)c1ccc(NC2CCCC2)nc1`: in assay [1], the EC50 was 389 nM. The outcome in assay [2] was inactive.

For the molecule `O=C(O)c1ccc(NC2CC2)nc1`, in assay [1], the EC50 was 324 nM. Further, the result in assay [2] was inactive.

Regarding `O=C(O)c1ccc(NC2CCC2)nc1`, in assay [1], the half-maximal effective concentration (EC50) is 72.4 nM. Besides, the result in assay [2] was inactive.

On to `CCCNc1ccc(C(=O)O)cn1`, for which the EC50 in assay [1] was 51.3 nM. In addition, in assay [2], the outcome was inactive.

As to `O=C(O)c1ccc(NC(=O)c2ccccc2)nc1`, the EC50 in assay [1] is 1580 nM. The result in assay [2] was inactive.

With `CCC(CC)Nc1ccc(C(=O)O)cc1[N+](=O)[O-]`, in assay [1], the EC50 is 57.5 nM. Further, the outcome in assay [2] was inactive.

Regarding `CCCN(C)c1ccc(C(=O)O)cc1[N+](=O)[O-]`, in assay [1], the EC50 is 52.5 nM. Also, in assay [2], the result was inactive.

As for `O=C(O)c1ccc(NC(=O)c2ccccc2)c([N+](=O)[O-])c1`, in assay [1], the concentration for a half-maximal effect (EC50) is 3090 nM. Moreover, in assay [2], the outcome was inactive.

For the molecule `CNc1ccc(C(=O)O)cn1`, in assay [1], the EC50 is 7410 nM. For the same molecule, the outcome in assay [2] was inactive.

On to `COCC(C)Nc1ccc(C(=O)O)cc1[N+](=O)[O-]` (centres undefined), for which the EC50 in assay [1] was 1410 nM. For the same molecule, the result in assay [2] was inactive.

For `COCCNc1ccc(C(=O)O)cc1[N+](=O)[O-]`, the EC50 in assay [1] is 589 nM. In addition, the outcome in assay [2] was inactive.

Take `CCNc1ccc(C(=O)O)cn1`: the EC50 in assay [1] was 398 nM. Moreover, in assay [2], the result was inactive.

Regarding `CCCN(CCC)c1ccc(C(=O)O)cn1`, the EC50 in assay [1] is 6310 nM. For the same molecule, the outcome in assay [2] was inactive.

With `CCC(C)Nc1ccc(C(=O)O)cn1` (centres undefined), in assay [1], the EC50 was 380 nM. The result in assay [2] was inactive.

Turning to `COCC(C)Nc1ccc(C(=O)O)cn1` (centres undefined), the EC50 in assay [1] is 3240 nM. Besides, the result in assay [2] was inactive.

With `CCNc1ccc(C(=O)O)cc1[N+](=O)[O-]`, in assay [1], the EC50 was 229 nM. The outcome in assay [2] was inactive.

In the case of `O=C(O)c1ccc(N2CCCC2)c([N+](=O)[O-])c1`, the EC50 in assay [1] is greater than 10000 nM. For the same molecule, the result in assay [2] was inactive.

As to `O=C(O)c1ccc(NC2CCCC2)c([N+](=O)[O-])c1`, the EC50 in assay [1] was 309 nM. In addition, the outcome in assay [2] was inactive.

As for `CCCN(CCC)c1ccc(C(=O)O)cc1[N+](=O)[O-]`, the EC50 in assay [1] was 120 nM. Besides, in assay [2], the outcome was inactive.

As to `C=CCNc1ccc(C(=O)O)cn1`, the EC50 in assay [1] is 70.8 nM. Further, in assay [2], the outcome was inactive.

As to `CC(C)C(C)Nc1ccc(C(=O)O)cc1[N+](=O)[O-]` (centres undefined), the EC50 in assay [1] was 363 nM. In addition, the outcome in assay [2] was inactive.

Regarding `O=C(O)c1ccc(Nc2ccccc2)c([N+](=O)[O-])c1`, the EC50 in assay [1] was 2450 nM. The result in assay [2] was inactive.

In the case of `O=C(O)c1ccc(NC2CCC2)c([N+](=O)[O-])c1`, the EC50 in assay [1] is 200 nM. The outcome in assay [2] was inactive.

With `CN(C)c1ccc(C(=O)O)cc1[N+](=O)[O-]`, in assay [1], the EC50 was 2040 nM. Besides, the result in assay [2] was inactive.

Turning to `CCN(CC)c1ccc(C(=O)O)cn1`, in assay [1], the EC50 is greater than 10000 nM. In assay [2], the outcome was inactive.

Take `CCCCNc1ccc(C(=O)O)cn1`: in assay [1], the EC50 was 100 nM. Also, the outcome in assay [2] was inactive.

For `CCCCCNc1ccc(C(=O)O)cn1`, in assay [1], the EC50 is 151 nM. The result in assay [2] was inactive.

As to `C=CCNc1ccc(C(=O)O)cc1[N+](=O)[O-]`, the EC50 in assay [1] is 100 nM. The outcome in assay [2] was inactive.

With `CCCCCNc1ccc(C(=O)O)cc1[N+](=O)[O-]`, the EC50 in assay [1] was 282 nM. Besides, the outcome in assay [2] was inactive.

Regarding `O=C(O)c1ccc(NCC2CCCO2)nc1` (centres undefined), the EC50 in assay [1] was 603 nM. Besides, the result in assay [2] was inactive.

In the case of `O=C(O)c1ccc(NCC2CCCO2)c([N+](=O)[O-])c1` (centres undefined), the EC50 in assay [1] was 309 nM. For the same molecule, the outcome in assay [2] was inactive.

As to `CCCCNc1ccc(C(=O)O)cc1[N+](=O)[O-]`, the EC50 in assay [1] was 158 nM. The outcome in assay [2] was inactive.

With `CCC(CC)Nc1ccc(C(=O)O)cn1`, the EC50 was 269 nM in assay [1] and 20000 nM in assay [3].

As for `CC(C)Nc1ccc(C(=O)O)cn1`, in assay [1], the EC50 was 603 nM. The result in assay [2] was inactive.

In the case of `CCN(CC)c1ccc(C(=O)O)cc1[N+](=O)[O-]`, the EC50 in assay [1] was 631 nM. In addition, the outcome in assay [2] was inactive.

With `COCCNc1ccc(C(=O)O)cn1`, the EC50 in assay [1] was 933 nM. Moreover, in assay [2], the outcome was inactive.

Turning to `CCCNc1ccc(C(=O)O)cc1[N+](=O)[O-]`, in assay [1], the EC50 was 29.5 nM. Also, the outcome in assay [2] was inactive.

With `CC(C)C(C)Nc1ccc(C(=O)O)cn1` (centres undefined), the EC50 in assay [1] was 1320 nM. In addition, the outcome in assay [2] was inactive.

Regarding `O=C(O)c1ccc(Nc2ccccc2)nc1`, the EC50 in assay [1] is 3240 nM. The result in assay [2] was inactive.
